Assay results taken from PMC9119314 (Frontiers in Pharmacology, 2022).
Values joined by “and” are separate entries in the source; they are usually repeats but may differ in a detail not shown here. Equal values may be shown once.

Test system: P. falciparum (NF54-Mal8p1.16-GFP-Luc) late-stage gametocytes
Experiment: microbe, parasite or virus in culture
Format: cell-based, Plasmodium falciparum
Protocol: Gametocytes were produced as per [Reader et al. (2015]; [2021)] from P. falciparum NF54-Mal8p1.16-GFP-Luc ([Adjalley et al., 2011]), and each batch was validated for viability and functionality before use. […] Drug assays were set up on day 10 (representing late gametocytes, >90% stage IV/V gametocytes) using a 2–3% gametocytemia, 1.5% hematocrit culture. The drug pressure was for 48 h under stationary, hypoxic conditions (90% N2, 5% O2, and 5% CO2) at 37°C. Luciferase activity was determined in 30 μL parasite lysates by adding 30 μL luciferin substrate (Promega Luciferase Assay System) at room temperature and detection of resultant bioluminescence at an integration constant of 10 s with the GloMax®-Multi + Detection System with Instinct® Software. Methylene blue (5 μM) and an internal control (MMV390048, 5 μM) were routinely included as controls.

Structure (SMILES): C[n+]1c2ccccc2cc2[n-]c3c(I)cc(I)cc3c21 [Compound 6, 7,9-diiodocryptolepine]
- IC50 (Plasmodium falciparum, NF54, 48 h, read-out: Activity against late-stage gametocytes IC50): 2200 ± 20 nM
- Selectivity index (SI), late-stage gametocytes with respect to Hep G cells (SI with respect to Hep G cells): 13 and 12.8
